# How the values were obtained:
# Format in all cases: cell-based
# [1] = tested on: HEK cells; experiment: Uptake by flow cytometry, HEK cells
# Procedure: (§1) Uptake of compound no. 446654 by A431 cells was measured by flow cytometry. A431 cells were treated with a growth factor for 4 hours prior to incubation with compound no. 446654 for 2 hours. Results are presented in the tables below as relative fluorescence units (RFU) and represent an average of three independent experiments.
# Uptake of compound no. 446654 was measured via flow cytometry, as in Example 8, in HEK cells overexpressing EGFR and wild type HEK cells.
# [2] = tested on: A431 cells; experiment: Immunofluorescent microscopy co-localization
# Procedure: Immunofluorescent staining was used to visualize clathrin, EGFR, and PS-ASOs in A431 cells. Compound no. 446654 has the sequence and structure Cy3-^mCesTesGes^mCesTesAdsGds^mCdsTds^mCdsTdsGdsGdsAdsTesTesTesGesAe (SEQ ID NO: 10). Cells were incubated with FITC labeled epidermal growth factor (EGF) or unlabeled EGF and compound no. 446654 for 30 minutes, then fixed with 4% paraformaldehyde for 20 minutes at room temperature and permeabilized with 0.05% saponin (Sigma) in PBS for 5 minutes. Cells were treated with blocking buffer (1 mg/mL BSA in PBS) for 30 minutes and then incubated with primary antibodies at room temperature for 2-4 hours or at 4° C. overnight. Primary antibodies used were ab30 (Abcam) for EGFR, ab21679 (Abcam) for clathrin, and antibody 610456 (BD Bioscience) for early endosome antigen 1 (EEA1). After three washes with PBS, cells were fluorescently labeled with secondary antibodies at room temperature for 1-2 hours. Secondary antibodies used were anti-mouse conjugated to AF488 (ab150077, Abcam) or AF647 (ab150079, Abcam), and anti-rabbit conjugated to AF488 (ab150113, Abcam) or AF647 (ab150115, Abcam). Nuclei were labeled with Hoechst 33342. Cells were then visualized with a confocal microscope (Olympus FV-1000), and single slices and Z-stack images were obtained. Co-localization between PS-ASOs and different organelles was analyzed using FV10-ASW 3.0 viewer software.
# [3] = tested on: A431 cells; experiment: Uptake of Cy3-labeled ASO by flow cytometry, A431 cells
# Procedure: as §1
# Uptake of compound no. 446654 was measured in siRNA treated A431 cells via flow cytometry, as described in example 8. The results are presented in the tables below and indicate that uptake of compound no. 446654 was unaffected by EGFR expression level.
# [4] = FITC-EGF, 30 minutes, EGFR and clathrin antibodies
# [5] = FITC-EGF, EGFR and EEA1 antibodies
# [6] = unlabeled EGF, 30 minutes, EGFR and clathrin antibodies
# [7] = unlabeled EGF, EGFR and EEA1 antibodies
substance,measurement,setting,value
"Cy3-^mCesTesGes^mCesTesAdsGds^mCdsTds^mCdsTdsGdsGdsAdsTesTesTesGesAe (antisense CTGCTAGCCTCTGGATTTGA; listed as DNA, chemistry not fully specified) [compound 446654, Cy3-labeled PS-ASO]",RFU,"[1]; 0.25 μM, Overexpressing EGFR",123 RFU
same,RFU,"[1]; 0.25 μM, Wild type HEK cells",109 RFU
same,RFU,"[1]; 0.5 μM, Overexpressing EGFR",163 RFU
same,RFU,"[1]; 0.5 μM, Wild type HEK cells",143 RFU
same,RFU,"[1]; 1 μM, Overexpressing EGFR",255 RFU
same,RFU,"[1]; 1 μM, Wild type HEK cells",287 RFU
same,"uptake, effect of varying EGFR expression levels",[1]; HEK cells overexpressing EGFR vs wild type,did not affect
same,co-localization with EGF,[2]; [4],observed within the cytoplasm and at the cell surface
same,co-localization with clathrin,[2]; [4],observed at the cell surface
same,co-localization with EEA1,[2]; [5],observed within the cytoplasm
same,co-localization with EGF,[2]; [5],observed both at the cell surface and within the cytoplasm
same,co-localization with EGFR,[2]; [6],observed both at the cell surface and within the cytoplasm
same,co-localization with clathrin,[2]; [6],observed at the cell surface
same,co-localization with EEA1,[2]; [7],observed in the cytoplasm and within the nucleus
same,co-localization with EGFR,[2]; [7],"observed at the cell surface, in the cytoplasm, and within the nucleus"
same,RFU,"[3]; 0.015 μM, Control Luciferase siRNA",22.3 RFU
same,RFU,"[3]; 0.015 μM, EGFR siRNA-1",25.3 RFU
same,RFU,"[3]; 0.015 μM, EGFR siRNA-2",24.7 RFU
same,RFU,"[3]; 0.03 μM, Control Luciferase siRNA",31.3 RFU
same,RFU,"[3]; 0.03 μM, EGFR siRNA-1",33.0 RFU
same,RFU,"[3]; 0.03 μM, EGFR siRNA-2",29.0 RFU
same,RFU,"[3]; 0.06 μM, Control Luciferase siRNA",136 RFU
same,RFU,"[3]; 0.06 μM, EGFR siRNA-1",133 RFU
same,RFU,"[3]; 0.06 μM, EGFR siRNA-2",101 RFU
same,RFU,"[3]; 0.12 μM, Control",1475 RFU
same,RFU,"[3]; 0.12 μM, Control Luciferase siRNA",359 RFU
same,RFU,"[3]; 0.12 μM, EGF",1772 RFU
same,RFU,"[3]; 0.12 μM, EGFR siRNA-1",444 RFU
same,RFU,"[3]; 0.12 μM, EGFR siRNA-2",292 RFU
same,RFU,"[3]; 0.12 μM, FGF",1420 RFU
same,RFU,"[3]; 0.12 μM, HGF",1204 RFU
same,RFU,"[3]; 0.12 μM, IGF",1659 RFU
same,RFU,"[3]; 0.12 μM, PGF",1321 RFU
same,RFU,"[3]; 0.12 μM, TGF",1500 RFU
same,RFU,"[3]; 0.12 μM, VEGF",1147 RFU
same,RFU,"[3]; 0.25 μM, Control",1606 RFU
same,RFU,"[3]; 0.25 μM, Control Luciferase siRNA",806 RFU
same,RFU,"[3]; 0.25 μM, EGF",1917 RFU
same,RFU,"[3]; 0.25 μM, EGFR siRNA-1",879 RFU
same,RFU,"[3]; 0.25 μM, EGFR siRNA-2",852 RFU
same,RFU,"[3]; 0.25 μM, FGF",1682 RFU
same,RFU,"[3]; 0.25 μM, HGF",1481 RFU
same,RFU,"[3]; 0.25 μM, IGF",1435 RFU
same,RFU,"[3]; 0.25 μM, PGF",1275 RFU
same,RFU,"[3]; 0.25 μM, TGF",1871 RFU
same,RFU,"[3]; 0.25 μM, VEGF",1423 RFU
same,RFU,"[3]; 0.5 μM, Control",2223 RFU
same,RFU,"[3]; 0.5 μM, Control Luciferase siRNA",1392 RFU
same,RFU,"[3]; 0.5 μM, EGF",2349 RFU
same,RFU,"[3]; 0.5 μM, EGFR siRNA-1",1437 RFU
same,RFU,"[3]; 0.5 μM, EGFR siRNA-2",1490 RFU
same,RFU,"[3]; 0.5 μM, FGF",1827 RFU
same,RFU,"[3]; 0.5 μM, HGF",2095 RFU
same,RFU,"[3]; 0.5 μM, IGF",1917 RFU
same,RFU,"[3]; 0.5 μM, PGF",2112 RFU
same,RFU,"[3]; 0.5 μM, TGF",2081 RFU
same,RFU,"[3]; 0.5 μM, VEGF",1973 RFU
same,RFU,"[3]; 1.0 μM, Control",1565 RFU
same,RFU,"[3]; 1.0 μM, Control Luciferase siRNA",2374 RFU
same,RFU,"[3]; 1.0 μM, EGF",2532 RFU
same,RFU,"[3]; 1.0 μM, EGFR siRNA-1",2614 RFU
same,RFU,"[3]; 1.0 μM, EGFR siRNA-2",2906 RFU
same,RFU,"[3]; 1.0 μM, FGF",2414 RFU
same,RFU,"[3]; 1.0 μM, HGF",2533 RFU
same,RFU,"[3]; 1.0 μM, IGF",2237 RFU
same,RFU,"[3]; 1.0 μM, PGF",2487 RFU
same,RFU,"[3]; 1.0 μM, TGF",2826 RFU
same,RFU,"[3]; 1.0 μM, VEGF",2655 RFU
same,RFU,"[3]; Time 0.25 hours, Control Luciferase siRNA",1082 RFU
same,RFU,"[3]; Time 0.25 hours, EGFR siRNA-1",814 RFU
same,RFU,"[3]; Time 0.25 hours, EGFR siRNA-2",950 RFU
same,RFU,"[3]; Time 0.5 hours, Control Luciferase siRNA",1988 RFU
same,RFU,"[3]; Time 0.5 hours, EGFR siRNA-1",1562 RFU
same,RFU,"[3]; Time 0.5 hours, EGFR siRNA-2",1637 RFU
same,RFU,"[3]; Time 1 hours, Control Luciferase siRNA",2315 RFU
same,RFU,"[3]; Time 1 hours, EGFR siRNA-1",2308 RFU
same,RFU,"[3]; Time 1 hours, EGFR siRNA-2",2698 RFU
same,RFU,"[3]; Time 2 hours, Control Luciferase siRNA",2276 RFU
same,RFU,"[3]; Time 2 hours, EGFR siRNA-1",2280 RFU
same,RFU,"[3]; Time 2 hours, EGFR siRNA-2",2349 RFU
same,RFU,"[3]; Time 4 hours, Control Luciferase siRNA",3103 RFU
same,RFU,"[3]; Time 4 hours, EGFR siRNA-1",2854 RFU
same,RFU,"[3]; Time 4 hours, EGFR siRNA-2",3069 RFU
same,RFU,"[3]; Time 6 hours, Control Luciferase siRNA",4300 RFU
same,RFU,"[3]; Time 6 hours, EGFR siRNA-1",3747 RFU
same,RFU,"[3]; Time 6 hours, EGFR siRNA-2",3821 RFU
same,RFU,"[3]; Time 8 hours, Control Luciferase siRNA",4988 RFU
same,RFU,"[3]; Time 8 hours, EGFR siRNA-1",5048 RFU
same,RFU,"[3]; Time 8 hours, EGFR siRNA-2",5145 RFU
same,"total uptake, effect of growth factor treatment","[3]; growth factor 4 hours, then compound 2 hours","not affected in a significant, dose dependent manner"
same,"uptake, effect of EGFR expression level",[3]; siRNA treated A431 cells,unaffected
